Assay results taken from ChEMBL document CHEMBL5137082, “Discovery of a Novel Vascular Disrupting Agent Inhibiting Tubulin Polymerization and HDACs with Potent Antitumor Effects” (J Med Chem, 2022).
Activity calls are given as the source filed them. The calls are words filed in the database; no cut-off is given here.

Tests used:
[1] = Antiproliferative activity against HUVEC cells assessed as inhibition of cell growth measured after 24 hrs by MTT assay; format: toxicity, cell-based; conditions: human
[2] = Metabolic stability in mouse liver microsomes assessed as metabolic bioavailability at 1 uM in presence of NADPH measured up to 60 mins by LC-MS/MS analysis; format: ADME, Microsome
[3] = tested on: HepG2; test: Induction of cell cycle arrest in human HepG2 cells assessed as accumulation G1 phase at 7.5 nM incubated for 48 hrs by propidium iodide staining based flow cytometry analysis (reference value: 59.32 +/- 0.77%); format: functional
[4] = tested on: H22; test: Antiproliferative activity against mouse H22 cells assessed as inhibition of cell growth measured after 72 hrs by MTT assay; format: functional, cell-based; conditions: H22, 72 h
[5] = tested on: H22; test: Antivascular activity against mouse H22 cells allografted in ICR mouse assessed as inhibition of blood vessel formation at 20 mg/kg, iv administered qd measured after 21 days by immunohistochemistry analysis; format: functional, organism-based; conditions: time 21.0 day
[6] = target: T1, Tubulin (Homo sapiens) (UniProt P68371+Q9H4B7+P0DPH7+P68366+Q13509+Q71U36+P04350+Q3ZCM7+P07437+P68363+Q9BQE3+Q6PEY2+Q13885+Q9BVA1+Q9BUF5); test: Induction of microtubule disruption in human HepG2 cells assessed as loss of cellular structure at 7.5 to 30 nM measured after 2 hrs by DAPI staining based immunofluorescence microscopic assay; format: cell-based; conditions: dose 7.5-30 nM
[7] = Toxicity in ICR mouse allografted with mouse H22 cells assessed as pathological changes in heart at 20 mg/kg, iv administered qd measured after 21 days by H and E staining based analysis; format: organism-based; conditions: in vivo, 504 h, time 21 day
[8] = tested on: HepG2; test: Induction of morphological changes in human HepG2 cells assessed as nuclear fragmentation at 7.5 to 30 nM after 48 hrs by Hoechst 33258 staining based fluorescence microscopic analysis; format: functional, cell-based; conditions: dose 7.5-30 nM
[9] = tested on: HepG2; test: Induction of cell cycle arrest in human HepG2 cells assessed as accumulation S phase at 15 nM incubated for 48 hrs by propidium iodide staining based flow cytometry analysis (reference value: 17.14 +/- 0.34%); format: functional
[10] = tested on: PC-3; test: Induction of apoptosis in human PC-3 cells assessed as mitochondrial membrane potential loss by measuring early apoptotic cells at 15 nM incubated for 48 hrs by JC1 staining based flow cytometry analysis (reference value: 6.50 +/- 0.17%); format: functional
[11] = Metabolic stability in mouse plasma assessed as compound remaining at 40 uM measured after 1 hrs by LC-MS/MS analysis (reference value: 100%); format: ADME, cell-free
[12] = tested on: HUVEC; test: Antimigratory activity against HUVEC cells assessed as suppression of migration measured after 24 hrs by Wound healing assay; format: functional, cell-based; conditions: Homo sapiens, dose 7.5-30 nM, DDE = dose-dependent effect
[13] = tested on: HepG2; test: Induction of G2/M phase cell cycle arrest in human HepG2 cells assessed as decrease in Cdc25c protein expression at 7.5 to 30 nM measured after 24 hrs by western blot analysis; format: functional, cell-based; conditions: dose 7.5-30 nM
[14] = tested on: PC-3; test: Induction of apoptosis in human PC-3 cells assessed as mitochondrial membrane potential loss by measuring decrease in […] fluorescence at 7.5 nM incubated for 48 hrs by JC1 staining based flow cytometry analysis (reference value: 93.48 +/- 0.15%); format: functional; design: scale not given: the % may be the effect or the level left
[15] = target: Histone deacetylase 3 (Homo sapiens, UniProt O15379); test: Inhibition of HDAC3 in human HeLa cells using BOC-K(Ac)-AMC as substrate measured after 30 mins by fluorescence based microtiter plate reader assay; format: cell-based
[16] = tested on: HepG2; test: Induction of cell cycle arrest in human HepG2 cells assessed as accumulation G1 phase at 15 nM incubated for 48 hrs by propidium iodide staining based flow cytometry analysis (reference value: 59.32 +/- 0.77%); format: functional
[17] = tested on: PC-3; test: Induction of apoptosis in human PC-3 cells assessed as mitochondrial membrane potential loss by measuring early apoptotic cells at 30 nM incubated for 48 hrs by JC1 staining based flow cytometry analysis (reference value: 6.50 +/- 0.17%); format: functional
[18] = tested on: K562; test: cells; format: functional, cell-based; conditions: Homo sapiens, K562, 72 h
Description: Antiproliferative activity against human K562 cells assessed as inhibition of cell growth measured after 72 hrs by MTT assay

[19] = tested on: HepG2; test: Induction of cell cycle arrest in human HepG2 cells assessed as accumulation S phase at 7.5 nM incubated for 48 hrs by propidium iodide staining based flow cytometry analysis (reference value: 17.14 +/- 0.34%); format: functional
[20] = tested on: HUVEC; test: Antivascular activity against HUVEC cells assessed as inhibition of capillary-like tubule formation at 30 nM measured after 6 hrs by inverted microscopy; format: functional, cell-based; conditions: Homo sapiens
[21] = tested on: HepG2; test: Induction of apoptosis in human HepG2 cells assessed as downregulation of Bcl-xL protein expression measured after 24 hrs by Western blot analysis; format: functional, cell-based; conditions: dose 7.5-30 nM, DDE = dose-dependent effect
[22] = tested on: HepG2; test: Induction of apoptosis in human HepG2 cells assessed as early apoptotic cells at 30 nM incubated for 48 hrs by Annexin-V/PI-staining based flow cytometry (reference value: 4.61 +/- 0.46%); format: functional
[23] = tested on: HepG2; test: Induction of cell cycle arrest in human HepG2 cells assessed as accumulation G2 phase at 15 nM incubated for 48 hrs by propidium iodide staining based flow cytometry analysis (reference value: 23.55 +/- 0.29%); format: functional
[24] = tested on: HCT-116; test: Antiproliferative activity against human HCT-116 cells assessed as inhibition of cell growth measured after 72 hrs by MTT assay; format: functional, cell-based; conditions: HCT-116, 72 h
[25] = tested on: HepG2; test: Induction of apoptosis in human HepG2 cells assessed as late apoptotic cells at 15 nM incubated for 48 hrs by Annexin-V/PI-staining based flow cytometry (reference value: 2.53 +/- 0.34%); format: functional
[26] = tested on: HepG2; test: Induction of cell cycle arrest in human HepG2 cells assessed as accumulation G2 phase at 30 nM incubated for 48 hrs by propidium iodide staining based flow cytometry analysis (reference value: 23.55 +/- 0.29%); format: functional
[27] = target: T1, Tubulin (Homo sapiens); test: Inhibition of [3H]Colchicine binding to tubulin (unknown origin) at 5 uM measured after 2 hrs by scintillation counting method relative to control; format: protein-complex assay
[28] = Toxicity in ICR mouse allografted with mouse H22 cells assessed as change in heart rate at 20 mg/kg, iv administered qd measured after 21 days; format: organism-based; conditions: in vivo, 504 h, time 21 day
[29] = tested on: H22; test: Antitumor activity against mouse H22 cells allografted in ICR mouse assessed as reduction in tumor weight at 20 mg/kg, iv administered qd measured after 21 days; format: functional; design: scale not given: the % may be the effect or the level left; conditions: time 21 day
[30] = target: T1, Tubulin (Homo sapiens); test: Inhibition of [3H]Colchicine binding to tubulin (unknown origin) at 1 uM measured after 2 hrs by scintillation counting method relative to control; format: protein-complex assay
[31] = tested on: H22; test: Antitumor activity against mouse H22 cells allografted in ICR mouse assessed as reduction in tumor volume growth rate at 20 mg/kg, iv administered qd for 21 days measured after 12 days; format: functional, organism-based; conditions: time 21.0 day
[32] = tested on: H22; test: Antivascular activity against mouse H22 cells allografted in ICR mouse assessed as reduction in tumor microvessel density by measuring CD31-positive cells at 20 mg/kg, iv administered qd measured after 21 days by immunohistochemistry analysis; format: functional, organism-based; conditions: time 21.0 day
[33] = Metabolic stability in mouse plasma assessed as compound remaining at 40 uM measured after 0.5 hrs by LC-MS/MS analysis (reference value: 100%); format: ADME, cell-free

Histone deacetylase 3, sequence (O15379 whole entry): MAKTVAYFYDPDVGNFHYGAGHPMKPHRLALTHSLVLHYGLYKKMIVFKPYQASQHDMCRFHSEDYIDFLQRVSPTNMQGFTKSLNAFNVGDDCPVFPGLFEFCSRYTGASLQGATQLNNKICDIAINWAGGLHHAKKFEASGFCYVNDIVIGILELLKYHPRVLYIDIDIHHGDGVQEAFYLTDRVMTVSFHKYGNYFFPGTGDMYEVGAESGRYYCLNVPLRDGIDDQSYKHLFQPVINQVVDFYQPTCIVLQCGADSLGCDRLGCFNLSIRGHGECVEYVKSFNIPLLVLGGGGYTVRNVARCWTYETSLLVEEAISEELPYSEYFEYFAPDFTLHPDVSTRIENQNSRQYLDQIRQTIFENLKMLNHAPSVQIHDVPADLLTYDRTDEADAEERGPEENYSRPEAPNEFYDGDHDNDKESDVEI

Compound: COc1ccc(CNC(=O)c2cc(F)ccc2N2CCOCC2)cc1/C=C/C(=O)NO
- IC50 at 24 h [1]: 271 nM
- Fh at 1 h, 1 µM [2]: 51.6%
- Activity [3]: 54.77%
- IC50 [4]: 26 nM
- Activity [5]: Active
- Activity [6]: Active
- Activity [7]: Non-Toxic
- Activity [8]: Active
- Activity [9]: 23.06%
- Activity [10]: 35.4%
- Stability [11]: 45.6%
- Activity [12]: Dde
- Activity [13]: Active
- Activity [14]: 76.73%
- IC50 [15]: 242 nM
- Activity [16]: 49.96%
- Activity [17]: 59.5%
- IC50 [18]: 18 nM
- Activity [19]: 20.81%
- Activity [20]: Active
- Activity [21]: Dde
- Activity [22]: 34.86%
- Activity [23]: 26.97%
- IC50 [24]: 28 nM
- Activity [25]: 6.36%
- Activity [26]: 33.09%
- inhibition [27]: 63.4%
- Activity [28]: Non-Toxic
- Activity [29]: 83%
- inhibition [30]: 52.3%
- Activity [31]: Active
- Activity [32]: Active
- Stability [33]: 59%
